Data from PMC8707212, “Immunosuppressive Sesquiterpenoids from the Edible Mushroom Craterellus odoratus” (Journal of Fungi, 2021).

Key:
[1] = Cytotoxicity on mouse spleen cells (CCK-8 assay); type: cell-based, BALB/c mice; conditions: female, fresh mouse spleen cells (splenic lymphocytes), BALB/c mouse spleen cells
Experimental: (§1) Female BALB/c mice were sacrificed by cervical dislocation, and their spleens were aseptically removed. After cell debris, mononuclear cell suspensions were prepared, and clumps were removed. Erythrocytes were depleted with ammonium chloride buffer solution. Lymphocytes were washed and resuspended in RPMI 1640 medium supplemented with 10% FBS, penicillin (100 U/mL), and streptomycin ([…]).
We used the Cell Counting Kit-8 (CCK-8) assay to test cytotoxicity. In brief, fresh spleen cells were obtained from female BALB/c mice (18–20 g). Spleen cells (1 × 10^6 cells) were seeded in triplicate in 96-well flat plates and cultured at 37 °C for 48 h, with or without compounds of various concentrations, in a humidified and 5% CO2-containing incubator. A certain amount of CCK-8 was added to each well during the last 8–10 h of culture. At the end of the culture, we use a microplate reader (Bio-Rad 650) to measure the OD value at 450 nm. […] Only the OD value of culture medium is used as background. The cytotoxicity of compounds was expressed as the concentration of the compounds that reduces cell viability to 50% (CC50).

B lymphocyte cells = experiment: LPS-induced B-cell proliferation ([3H]-thymidine uptake); type: cell-based, BALB/c mice; conditions: Mus musculus, spleen cells stimulated with 10 µg/mL LPS
Experimental: as §1
As mentioned above, fresh spleen cells were obtained from female BALB/c mice (18–20 g). Similarly, the 5 × 10^5 spleen cells were cultured at the same conditions. The cultures, with or without various concentrations of compounds, were stimulated with 5 µg/mL of concanavalin A (ConA) to induce the T cells’ proliferative response or 10 µg/mL of lipopolysaccharide (LPS) to induce B cells’ proliferative response. Proliferation was assessed in terms of uptake of [^3H]-thymidine during 8 h of pulsing with 25 µL/well of [^3H]-thymidine, then cells will be harvested onto glass fiber filters. A Beta scintillation counter was used to count the incorporated radioactivity. Cells treated without any stimuli were used as a negative control. The immunosuppressive activity was expressed as the concentration of the compound that inhibited T or B cell proliferation to 50% (IC50) of the control value. Both the cytotoxicity and proliferation assessment were repeated twice.

T lymphocyte cells = experiment: ConA-induced T-cell proliferation ([3H]-thymidine uptake); type: cell-based, BALB/c mice; conditions: Mus musculus, spleen cells stimulated with 5 µg/mL ConA, read-out: Con A-Induced T-Cell Proliferation IC50
Experimental: as §1

With `CC(=CCCC1(C)C2CCC(CO)(C2)C1O)C(=O)O` (stereo not shown) [Compound 3, Craterodoratin C] the CC50 at 48 h [1] was greater than 40 µM, the IC50 (B lymphocyte cells) was 12.6 ± 1.14 µM and the melting point was 180.7 to 182.4 °C.

Work on `CC(=CC(O)CC12COC3(CO)CCC1CC32)C(=O)O` (stereo not shown) [Compound 10, Craterodoratin J] yielded a CC50 at 48 h [1] greater than 40 µM and an IC50 (B lymphocyte cells) of 19.4 ± 0.48 µM.

In the case of `CC(=CC(=O)CC12C(=O)OC3(C)CCC1CC32)C(=O)O` (stereo not shown) [Compound 12, Craterodoratin L], the CC50 at 48 h [1] is reported as greater than 40 µM and the IC50 (B lymphocyte cells) is reported as 13.7 ± 0.65 µM.

With `CC(=CCCC1(C)C2CCC(CO)C1C2)C(=O)O` (stereo not shown) [Compound 13, Craterodoratin M] the CC50 at 48 h [1] was greater than 40 µM and the IC50 (B lymphocyte cells) was 15.4 ± 1.03 µM.

Work on `CC(=CCCC1(C)C2CCC(CO)C1(O)C2)C(=O)O` (stereo not shown) [Compound 14, Craterodoratin N] yielded a CC50 at 48 h [1] greater than 40 µM and an IC50 (B lymphocyte cells) of 13.3 ± 1.29 µM.

For `C=C1CCC2(O)CC1C2(C)CCC=C(C)C(=O)O` (stereo not shown) [Compound 15, Craterodoratin O], the CC50 at 48 h [1] was greater than 40 µM and the IC50 (B lymphocyte cells) was 17.1 ± 1.14 µM.

`C=C1CCC2CC1C2(COC(C)=O)CC(O)C=C(C)C(=O)O` (stereo not shown) [Compound 17, Craterodoratin Q] showed a CC50 at 48 h [1] greater than 40 µM and an IC50 (T lymphocyte cells) of 31.5 ± 1.79 µM.

`C=C1C2CN(CC(=O)O)CC3C2C(C(C)C)CCC13C` (stereo not shown) [Compound 19, Craterodoratin S] gave a CC50 at 48 h [1] greater than 40 µM and an IC50 (B lymphocyte cells) of 22.7 ± 1.67 µM.

Work on `CC(=CC(O)CC12COC3(C)CCC1CC32)C(=O)O` (stereo not shown) [Compound 20, massarinolin B] yielded a CC50 at 48 h [1] greater than 40 µM, an IC50 (T lymphocyte cells) of 0.98 ± 0.01 µM and an IC50 (B lymphocyte cells) of 0.67 ± 0.004 µM.

For `CC(=CC1CC23C4CCC(C)(OC2O1)C3C4)C(=O)O` (stereo not shown) [Compound 23, donacinoic acid A], the CC50 at 48 h [1] was greater than 40 µM and the IC50 (B lymphocyte cells) was 13.2 ± 0.97 µM.
